ChEMBL document CHEMBL3832029, “DailyMed|setid=517810a4-76bb-4739-893f-1f2ba94a5d0c | ZENATANE -isotretinoin capsule, gelatine coated”
Values joined by “and” are separate entries in the source; they are usually repeats but may differ in a detail not shown here. Equal values may be shown once.

Assays:
Assay type in all cases: ADME, organism-based
Homo sapiens [1] = assay: (§1) Mean pharmacokinetics parameters for Isotretinoin following single oral administration of Isotretinoin to healthy subjects.; set-up: dose 80 mg, route oral; details: in vivo, po, dosed compound id 16, dosed compound name ISOTRETINOIN, regimen Single dose, tissue Plasma
[2] = as §1; set-up: dose 80 mg, route oral; details: human, in vivo, dietary status Fed, dosed compound id 16, dosed compound name ISOTRETINOIN, regimen Single dose, tissue Plasma; for AUC: po, 80 mg
Homo sapiens [3] = assay: (§2) Steady-state pharmacokinetic parameters of Isotretinoin following multiple oral administration of Isotretinoin to 38 pediatric patients, […], after a non-standardised meal.; set-up: route oral; details: in vivo, po, dietary status Fed, dosed compound id 16, dosed compound name ISOTRETINOIN, regimen Multiple dose, tissue Plasma
[4] = as §2; set-up: route oral; details: human, in vivo, dietary status Fed, dosed compound id 16, dosed compound name ISOTRETINOIN, regimen Multiple dose, tissue Plasma
[5] = dietary status Fasting, dose 80 mg

Tmax (Homo sapiens [1]; [5]): 3.2 h
t1/2 (Homo sapiens [1]; [5]): 21 h
AUC(0 to inf) (Homo sapiens [1]; dietary status Fasting): 3700 ng·h/mL
Cmax (Homo sapiens [1]; dietary status Fasting): 301 ng/mL
AUC(0 to inf) (Homo sapiens [1]; dietary status Fed): 10000 ng·h/mL
Cmax (Homo sapiens [1]; dietary status Fed): 862 ng/mL and 573.25 ng/mL
Tmax (Homo sapiens [1]; dietary status Fed): 6 h
AUC ([2]; read-out: AUC(0-12)): 3030 ng·h/mL
AUC ([2]; read-out: AUC(0-24)): 6000 ng·h/mL
Tmax ([2]; dose 80 mg, route oral): 5.3 h
half-life ([2]; dose 80 mg, route oral): 21 h
Css min (Homo sapiens [3]): 352.32 ng/mL
Cmax ([4]; po): 732 ng/mL
AUC ([4]; po, read-out: AUC(0-12)): 5080 ng·h/mL
CL/F ([4]; route oral): 299 mL/min
Tmax ([4]; route oral): 4 h
half-life ([4]; route oral): 15.7 h
SMILES: CC1=C(/C=C/C(C)=C/C=C/C(C)=C\C(=O)O)C(C)(C)CCC1 [ISOTRETINOIN]
